Experimental data as given in the supplement of paper PMC10307832.

Columns and labels:
Test in all cases: relative viability (nuclei count vs DMSO), 5 days (fraction); higher = more cells survive
[1] = compound: C=C(c1ccc(C(=O)O)cc1)c1cc2c(cc1C)C(C)(C)CCC2(C)C [Bexarotene] + Cc1nc(NC(=O)N2CCC[C@H]2C(N)=O)sc1-c1ccnc(C(C)(C)C(F)(F)F)c1 [Alpelisib] (partner 2 µM)
Summary of the method: (§1)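 The day after seeding in 1536-well plates, lung cancer cell lines were treated by pin tool with a single drug, or with a fixed anchor-drug dose together with five library-drug doses (not always all listed) in √10 steps. After 5 days, a combined fix-and-stain solution (final 0.05% Triton X-100, 1% formaldehyde, 1 ug/ml Hoechst) was added. Nuclei counted on 4× images gave relative viability as treated counts over vehicle counts, reported as the median of duplicate plates.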

[2] = compound: C=C(c1ccc(C(=O)O)cc1)c1cc2c(cc1C)C(C)(C)CCC2(C)C [Bexarotene] + CCNC(=O)c1noc(-c2cc(C(C)C)c(O)cc2O)c1-c1ccc(CN2CCOCC2)cc1 [Luminespib] (partner 0.01 µM)
Summary of the method: as §1

[3] = compound: C=C(c1ccc(C(=O)O)cc1)c1cc2c(cc1C)C(C)(C)CCC2(C)C [Bexarotene] + Cc1cc(Nc2cc(N3CCN(C)CC3)nc(Sc3ccc(NC(=O)C4CC4)cc3)n2)n[nH]1 [Tozasertib] (partner 0.1 µM)
Summary of the method: as §1

[4] = compound: C=C(c1ccc(C(=O)O)cc1)c1cc2c(cc1C)C(C)(C)CCC2(C)C [Bexarotene] + Cc1nc(Nc2ncc(C(=O)Nc3c(C)cccc3Cl)s2)cc(N2CCN(CCO)CC2)n1 [Dasatinib] (partner 0.075 µM)
Summary of the method: as §1

Cell Line | relative viability ([1]; first compound 0.08 µM) | relative viability ([1]; first compound 0.253 µM) | relative viability ([1]; first compound 0.8 µM) | relative viability ([1]; first compound 2.53 µM) | relative viability ([1]; first compound 8 µM) | relative viability ([2]; first compound 0.08 µM) | relative viability ([2]; first compound 0.253 µM) | relative viability ([2]; first compound 0.8 µM) | relative viability ([2]; first compound 2.53 µM) | relative viability ([2]; first compound 8 µM) | relative viability ([3]; first compound 0.08 µM) | relative viability ([3]; first compound 0.253 µM) | relative viability ([3]; first compound 0.8 µM) | relative viability ([3]; first compound 2.53 µM) | relative viability ([3]; first compound 8 µM) | relative viability ([4]; first compound 0.08 µM) | relative viability ([4]; first compound 0.253 µM) | relative viability ([4]; first compound 0.8 µM) | relative viability ([4]; first compound 2.53 µM) | relative viability ([4]; first compound 8 µM)
NCI-H1755 | 0.917 | 1.05 | 0.94 | 0.876 | 0.917 | 0.391 | 0.504 | 0.679 | 0.52 | 0.438 | 0.624 | 0.607 | 0.637 | 0.638 | 0.622 | 0.436 | 0.395 | 0.366 | 0.403 | 0.361
NCI-H1793 | 0.956 | 0.81 | 0.81 | 0.727 | 0.824 | 0.2 | 0.152 | 0.164 | 0.15 | 0.335 | 0.308 | 0.319 | 0.394 | 0.287 | 0.337 | 0.367 | 0.366 | 0.409 | 0.406 | 0.399
NCI-H1915 | 1.17 | 1.06 | 1.04 | 1 | 0.95 | 0.805 | 0.742 | 0.748 | 0.714 | 0.724 | 0.465 | 0.492 | 0.425 | 0.339 | 0.376 | 0.391 | 0.319 | 0.292 | 0.297 | 0.297
NCI-H1944 | 1.08 | 1.05 | 0.913 | 0.954 | 0.867 | 1.45 | 0.977 | 0.959 | 1.11 | 0.875 | 0.323 | 0.29 | 0.307 | 0.299 | 0.257 | 0.24 | 0.216 | 0.222 | 0.221 | 0.293
NCI-H1975 | 0.705 | 0.783 | 0.665 | 0.669 | 0.836 | 0.171 | 0.159 | 0.201 | 0.154 | 0.215 | 0.809 | 0.875 | 0.846 | 0.73 | 0.879 | 0.468 | 0.335 | 0.391 | 0.335 | 0.375
NCI-H1993 | 0.657 | 0.645 | 0.689 | 0.735 | 0.684 | 1.09 | 0.783 | 0.792 | 0.859 | 0.815 | 0.544 | 0.576 | 0.604 | 0.527 | 0.613 | 0.655 | 0.573 | 0.528 | 0.617 | 0.613
NCI-H2009 | 1.27 | 1.23 | 1.11 | 1.17 | 1.06 | 1.19 | 1.18 | 1.12 | 1.2 | 1.02 | 0.753 | 0.897 | 0.814 | 0.815 | 0.778 | 0.323 | 0.33 | 0.301 | 0.322 | 0.359
NCI-H2023 | 0.622 | 0.618 | 0.615 | 0.548 | 0.57 | 0.903 | 0.86 | 0.618 | 0.568 | 0.547 | 0.395 | 0.385 | 0.417 | 0.328 | 0.283 | 0.628 | 0.64 | 0.561 | 0.522 | 0.5
NCI-H2085 | 0.892 | 0.924 | 0.873 | 0.855 | 0.824 | 0.451 | 0.556 | 0.374 | 0.457 | 0.378 | 0.865 | 0.834 | 0.728 | 0.771 | 0.767 | 0.25 | 0.2 | 0.19 | 0.218 | 0.241
NCI-H2087 | 1.27 | 1.11 | 1.08 | 0.997 | 1.05 | 0.174 | 0.169 | 0.175 | 0.139 | 0.142 | 0.254 | 0.314 | 0.211 | 0.179 | 0.258 | 1.02 | 0.919 | 0.703 | 0.843 | 0.903
NCI-H2126 | 0.8 | 0.81 | 0.698 | 0.826 | 0.847 | 0.929 | 0.843 | 0.924 | 0.916 | 0.823 | 0.881 | 0.869 | 0.793 | 0.818 | 0.829 | 0.573 | 0.588 | 0.586 | 0.584 | 0.602
NCI-H2170 | 0.762 | 0.777 | 0.782 | 0.759 | 0.66 | 0.835 | 0.697 | 0.721 | 0.464 | 0.695 | 0.729 | 0.631 | 0.654 | 0.63 | 0.614 | 0.615 | 0.466 | 0.522 | 0.476 | 0.584
NCI-H2228 | 0.669 | 0.722 | 0.609 | 0.629 | 0.499 | 0.186 | 0.121 | 0.145 | 0.145 | 0.132 | 0.241 | 0.262 | 0.226 | 0.205 | 0.229 | 0.56 | 0.635 | 0.48 | 0.343 | 0.509
NCI-H2347 | 1.05 | 1.03 | 0.748 | 1.01 | 1.11 | 0.507 | 0.255 |  | 0.379 | 0.22 | 0.625 | 0.668 |  | 0.585 | 0.623 | 0.358 | 0.323 |  | 0.259 | 0.244
NCI-H2405 | 0.935 | 0.915 | 0.52 | 0.806 | 0.864 | 0.775 | 0.663 | 0.539 | 0.703 | 0.625 | 0.786 | 0.752 | 0.54 | 0.759 | 0.715 | 0.219 | 0.247 | 0.136 | 0.144 | 0.188
NCI-H3122 | 0.782 | 0.8 | 0.784 | 0.786 | 0.847 | 0.0956 | 0.0599 | 0.0864 | 0.0982 | 0.0732 | 0.431 | 0.492 | 0.425 | 0.471 | 0.476 | 0.755 | 0.959 | 0.729 | 0.768 | 0.701
